Read-outs that look alike come from different tables or passages of the source.
Key:
[1] = test system: U2OS human osteosarcoma cells; assay: MTT assay of U2OS cancer cell growth inhibition; assay type: cell-based; conditions: for IC50: read-out: 50% inhibition Cell growth, U2OS cells, MTT, 72 hr; for U2OS cell growth in MTT assay: 20 μM, 3 days
Method: MIT assays are conducted to evaluate activity to inhibit cancer cell growth. U2OS human osteosarcoma cells were treated with individual compounds at different concentrations for 72 hr in 24-well plates. MIT reagent was added to a final concentration of 0.5 mg/ml and further incubated for 4 hr. The yellow-colored MTT was reduced to insoluble purple-colored Formazan in living cells. Culture medium was removed and DMSO was added to dissolve Formazan into solution. The absorbance of the solution was then measured at 570 nm using a Thermo BioMate™ 3 spectrophotometer. Results are shown in FIG. 1 and average and standard deviations are shown (n>=3).
Cells were treated with individual compounds at different concentrations for 72 hr in 24-well plates. MTT reagent was added to a final concentration of 0.5 mg/ml and further incubated for 4 hr. The yellow-colored MTT was reduced to insoluble purple-colored Formazan in living cells. Culture medium was removed and DMSO was added to dissolve Formazan into solution. The absorbance of the solution was then measured at 570 nm using a Thermo BioMate™ 3 spectrophotometer.

[2] = molecular target: PAD4 (Homo sapiens (Human), UniProt Q9UM07); assay: PAD4 enzyme activity colorimetric assay (citrullination of BAEE); assay type: biochemical; conditions: 0.2 μg PAD4, 5 mM BAEE, 37° C.
Method: PAD4 enzyme activity assays are conducted to determine PAD4 inhibitory activity. PAD4 inhibition efficacy of the inhibitors is determined using a colorimetric assay for citrullination production.
The inhibition efficacy of PAD4 inhibitors were determined by colorimetric measurement of citrulline generated by PAD4 catalyzed citrullination of BAEE. 0.2 μg PAD4 was pre-incubated with inhibitors in 100 μl buffer containing 50 mM Tris-HCl pH7.6, 5 mM CaCl2, 2 mM DTT for 0.5 hr at 37° C. The reaction was started by the addition of BAEE to 5 mM and halted 1.5 hr later with the addition of 25 μl 5 M HClO4. Then the samples were briefly centrifuged at 12000 rpm for 2 min at 4° C. and the supernatant (120 μl) were assayed for citrulline by mixing with 120 μl reagent A (0.5% w/v diacetyl monoxime and 15% w/v NaCl in water) and 240 μl reagent B (1% w/v antipyrine, 0.15% w/v ferric chloride, 25% v/v H2SO4 and 25% v/v H3PO4). The mixtures were boiled for 15 min and cooled to room temperature in ice bath. The absorbance of the reagent mixtures at 464 nm was measured by Thermo BioMate™ 3 spectrophotometer. Efficacies of inhibitors are indicated as relative PAD4 citrullination activity by normalizing the PAD4 activity without inhibitor treatment to 100%.

[3] = test system: p53 and its target genes; assay: RT-qPCR and Western blot of p53 and its target genes in U2OS cells; assay type: cell-based, human; conditions: U2OS cells
Method: Western blot and immunostaining was performed essentially as described in Li, P. et al., Oncogene 29 (21), 3153-3162 (2010). Antibodies used in Western blot were anti-p53 (Sigma), anti-PAD4, anti-p21 (Sigma), anti-PUMA (Calbiochem), anti-SESN2 (Abeam), anti-p70S6K (Cell Signaling), anti-p70S6K-pT389 (Cell Signaling), anti-LC3 (Cell Signaling) and anti-β-actin (Sigma) at appropriate dilutions. Anti-LC3B antibody (Cell Signaling) was used for immunostaining. DNA was stained by the DNA dye Hoechst.
RNA was extracted using RNeasy Mini Kit (Qiagen) per manufacturer's instructions. 1 μg RNA was reverse transcribed into cDNA using qScript cDNA SuperMix (Quanta Biosciences) per manufacturer's instructions. Quantitative PCR was performed using SYBR Green SuperMix (Quanta Biosciences) in StepOnePlus Real-Time PCR System (Applied Biosystems). FIG. 10 is a graph showing p53 and its target gene expression induced in S180 cells by YW3-56 in a concentration dependent manner.
U2OS and S-180 cells were cultured in Dulbecco modified Eagle medium (DMEM) supplemented with 10% fetal bovine serum and 1% penicillin-streptomycin in a 5% CO2 incubator. U2OS p53-shRNA and U2OS Ctrl-shRNA cells were generated as described in Li, P. et al., Regulation of p53 target gene expression by peptidylarginine deiminase 4. Mol Cell Bial 28 (15), 4745-4758 (2008). Concentrations and duration of YW3-56 treatment were performed as specified in the figures and text. For starvation assay, U2OS cells were first cultured in serum-free DMEM for 16 hr, 10% fetal bovine serum and different concentrations of YW3-56 was then added back and cells were further incubated for 8 hr before further analyses. SESN2 siRNA (Santa Cruz) and GFP siRNA (Dharmacon Inc.) were transfected into U2OS cells using the XtremeGene siRNA transfection reagents (Roche Inc.). Cells were incubated in the presence of the siRNA for 48 hr before adding YW3-56 and further incubated for 8 hr before analyses.
The relative abundance of each gene is compared with β-actin as a reference. Increase in several p53 target genes, such as p21, GADD45, PUMA, OKL38, DRAM, and Sestrin2, is detected after YW3-88 treatment at 12 μM concentration. […] Increase in p21 and PUMA proteins is detected.

[4] = test system: PAD4+/+ mouse neutrophils; assay: Histone citrullination, enlarged nucleus and NET formation in PAD4+/+ neutrophils; assay type: cell-based; conditions: for NET formation, percentage of neutrophils / Histone citrullination, percentage of positive neutrophils / Enlarged nucleus, percentage of neutrophils: PAD4+/+; for NET formation, percentage of neutrophils / Enlarged nucleus, percentage of neutrophils: Cl-amidine 200 μM 30 min prior to LPS; for Histone citrullination, percentage of positive neutrophils: Cl-amidine 200 μM 30 min prior to LPS for 3 hr; for Enlarged nucleus, percentage of neutrophils: nuclear diameter over 1.5 fold larger
Method: (§1) NET formation is induced after lipopolysaccharides (LPS) and phorbol myristate acetate (PMA) treatment in human neutrophils (Brinkmann et al., 2004). To test whether PAD4 is important for chromatin decondensation and NET formation upon LPS treatment, immunostaining experiments are performed. Before LPS treatment, ˜3.69% of PAD4^+/+ neutrophils are positively stained for histone H3 citrullination but NET formation is not detected, while histone H3 citrullination or NET formation is not observed in PAD4^−/− neutrophils. After LPS treatment, an increase in histone H3 citrullination is detected in PAD4^+/+ but not in PAD4^−/− neutrophils by Western blotting or immunostaining analyses. […] The decondensed chromatin induced by LPS is positively stained by histone H3 citrullination and neutrophil elastase antibodies, indicating these structures are indeed NETs. […] Furthermore, chromatin decondensation and histone citrullination are detected in PAD4^+/+ but not in PAD4^−/− neutrophils after PMA treatment.
(§2) Table II illustrates the efficacy of LPS, PMA, and H2O2 in inducing chromatin structure changes in PAD4^+/+ and PAD4^−/− neutrophils. […] PAD4 is required for NET formation after stimulation of neutrophils.

[5] = test system: PAD4-/- mouse neutrophils; assay: Histone citrullination, enlarged nucleus and NET formation in PAD4-/- neutrophils; assay type: cell-based; conditions: U.D. = undetectable
Method: as §1, §2

[6] = test system: human HL-60 granulocytic cells; conditions: HL-60 granulocytic cells (Wang et al., 2009); cited from earlier work
[7] = test system: S180 tumor; assay: Sarcoma S180 cell-derived mouse tumor model; assay type: in vivo; conditions: SAHA 5 mg/kg daily for 1 week
Source text: A well-established sarcoma S180 cell-derived mouse tumor model is used in this example to determine the effects of PAD4 inhibitors of the present invention on tumor growth in mice.
(§3) S180 ascites tumor cells were used to form solid tumors after subcutaneous injection essentially as described in Wang, W. et al., Mol. Biosyst., 2011, 7:766-772. In brief, for initiation of subcutaneous tumors, the cells were obtained as an ascitic form from the tumor-bearing mice, which were serially transplanted once per week. Subcutaneous tumors were implanted by injecting 0.2 ml of 0.9% saline containing 1×10^7 viable tumor cells under the skin on the right armpit. 24 hr after implantation, male ICR mice were randomly divided into experimental groups. The mice in the positive control group were given a daily i.p injection of 2 mg/kg of doxorubicin in 0.2 ml of 0.9% saline for 7 consecutive days. The mice in the negative control group were given a daily i.p injection of 0.2 ml of 0.9% saline for 7 consecutive days. The mice in the treatment groups were given a daily i.p injection of YW3-56 (10 mg/kg), SAHA (5 mg/kg), or a combination of YW3-56 (5 mg/kg) and SAHA (2.5 mg/kg) for 7 consecutive days. The weights of the mice were recorded every day. 24 hr after the last administration, all mice were weighed, euthanized and immediately dissected to obtain and weigh the tumor and vital organs.

[8] = Body and vital organ weight after 1 week of treatment; assay type: in vivo, mouse
Method: as §3, with “The mice in the treatment groups were given a daily i.p injection of YW3-56 (10 mg/kg), SAHA (5 mg/kg), or a combination of YW3-56 (5 mg/kg) and SAHA (2.5 mg/kg) for 7 consecutive days.” left out, “24 hr after the last administration, all mice were weighed, euthanized and immediately dissected to obtain and weigh the tumor and vital organs.” left out
FIG. 13A-13F show weight of whole body, FIG. 13A; brain, FIG. 13B; heart, FIG. 13C; liver, FIG. 13D; kidney, FIG. 13E; and spleen, FIG. 13F measured in mice after 1 week of treatment with daily intraperitoneal injection of control PBS, YW3-56 at 10 mg/kg body weight, SAHA at 5 mg/kg body weight, a mixture of YW3-56 at 5 mg/kg body weight and SAHA at 2.5 mg/kg body weight, or doxorubicin at 2 mg/kg body weight. * in (f) denotes a loss of spleen weight after doxorubicin treatment.

[9] = read-out: 50% inhibition PAD4 activity

Sequence of PAD4 (Q9UM07 whole entry, species assumed): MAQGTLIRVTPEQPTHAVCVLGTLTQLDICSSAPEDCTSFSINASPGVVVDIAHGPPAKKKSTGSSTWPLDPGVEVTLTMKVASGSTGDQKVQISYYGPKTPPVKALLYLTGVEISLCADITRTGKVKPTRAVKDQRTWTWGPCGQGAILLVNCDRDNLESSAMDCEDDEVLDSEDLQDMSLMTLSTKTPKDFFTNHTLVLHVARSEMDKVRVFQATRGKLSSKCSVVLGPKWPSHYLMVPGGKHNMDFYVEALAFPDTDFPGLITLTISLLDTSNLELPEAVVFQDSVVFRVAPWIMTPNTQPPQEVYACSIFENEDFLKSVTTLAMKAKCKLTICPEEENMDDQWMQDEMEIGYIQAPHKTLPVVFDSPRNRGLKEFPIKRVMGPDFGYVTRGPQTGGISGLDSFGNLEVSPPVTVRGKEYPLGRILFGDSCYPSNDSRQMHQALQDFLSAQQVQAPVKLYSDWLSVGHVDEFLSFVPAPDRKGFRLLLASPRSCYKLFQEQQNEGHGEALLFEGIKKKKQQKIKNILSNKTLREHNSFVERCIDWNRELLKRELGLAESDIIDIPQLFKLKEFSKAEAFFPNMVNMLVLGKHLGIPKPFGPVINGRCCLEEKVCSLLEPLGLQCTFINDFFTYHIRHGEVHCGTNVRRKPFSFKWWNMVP

Compound	IC50 ([1]; Homo sapiens)	IC50 [2, 9]	NET formation, percentage of neutrophils [4]	Histone citrullination, percentage of positive neutrophils [4]	Enlarged nucleus, percentage of neutrophils [4]	Enlarged nucleus, percentage of neutrophils [5]	Histone citrullination, percentage of positive neutrophils [5]	NET formation, percentage of neutrophils [5]	also measured
N=C(CCl)NCCC[C@H](NC(=O)c1ccccc1)C(=O)NCc1ccccc1 [BL1-07]	10 to 20 µM	> 20 µM							induction of p53 and its target genes ([3]; even at higher concentrations): less potent
NC(=O)[C@H](CCCN=C(N)CCl)NC(=O)c1ccccc1 [Cl-amidine]			0.32 ± 0.3%^5	8.1 ± 1.3%^5	1.2 ± 0.2%^5	U.D.	U.D.	U.D.	IC50 [1]: 150 to 200 µM; histone H3 citrullination and chromatin decondensation induced by LPS ([4]; pretreatment of PAD4+/+ mouse neutrophils): significantly decreases; formation of NET-like structure [6]: represses the formation of NET-like structure
CCCCCCCCCCCCCC(=O)O[C@@H]1[C@@H](C)[C@@]2(O)[C@@H](C=C(CO)C[C@]3(O)C(=O)C(C)=C[C@@H]23)[C@@H]2C(C)(C)[C@]12OC(C)=O [PMA, phorbol myristate acetate]			2.7 ± 0.5%^5	48.5 ± 3%^5	10.9 ± 0.3%^5	U.D.	U.D.	U.D.	
O=C(CCCCCCC(=O)Nc1ccccc1)NO [SAHA, suberoylanilide hydroxamic acid, reference compound]									growth of S180 tumor relative to control group [7]: ~44.6%; mouse growth and vital organ size ([8]; daily i.p. injection for 1 week): Neither SAHA alone nor mixtures of YW3-56 and SAHA impair
OO [Structure H2O2, H2O2]			3 ± 0.3%^5	48.3 ± 5.4%^5	13.4 ± 1.4%^5	U.D.	U.D.	U.D.	
N=C(CCl)NCCC[C@H](NC(=O)c1ccc(-c2ccccc2)cc1)C(=O)NCc1ccccc1 [YW3-88]	~10 µM	> 20 µM							U2OS cell growth in MTT assay [1]: abolished cell growth; p21 and PUMA proteins by Western blot [3]: Increase; p53 target gene mRNA (p21, GADD45, PUMA, OKL38, DRAM, Sestrin2) ([3]; 12 μM): Increase
N=C(CCl)NCCC[C@H](NC(=O)c1cccc(-c2ccccc2)c1)C(=O)NCc1ccccc1 [YW4-03]	2.5 to 5 µM	~5 µM							U2OS cell growth in MTT assay [1]: abolished cell growth
CN(C)c1ccc2cc(C(=O)N[C@@H](CCCNC(=N)CCl)C(=O)NCc3ccc(NC(=O)CCCNC(=O)CCCCC4SCC5NC(=O)NC54)cc3)ccc2c1 (some centres unmarked) [YW4-15]	20 to 50 µM								IC50 [2]: 1 to 5 µM
COc1cccc2c1C(=O)c1c(O)c3c(c(O)c1C2=O)C[C@@](O)(C(=O)CO)C[C@@H]3O[C@H]1C[C@H](N)[C@H](O)[C@H](C)O1 [doxorubicin]									size of spleen relative to control mice ([8]; doxorubicin 2 mg/kg i.p. daily for 1 week): ~50%
lipopolysaccharides [LPS]			9.5 ± 0.5%^5	42.3 ± 3.9%^5	23.4 ± 2.7%^5	U.D.	U.D.	U.D.	nuclear area increase in size (swelling nuclei) ([4]; PAD4+/+ neutrophils after LPS treatment, NIH image J): ~3.5 fold

Source: US8969333B2, “Therapeutic compositions and methods” (The Penn State Research Foundation, priority 2010, dated 2015)
